The source of these data is ChEMBL document CHEMBL3045031, “Study on synthesis of thalidomide analogues and their bioactivities; inhibition on iNOS pathway and cytotoxic effects” (Med Chem Res, 2012).

By IC50 is commonly meant the point on the concentration scale where inhibition reaches its midpoint. One may read the inhibition as how much of the control response was suppressed.

The test system of experiment [1] is NUGC. Briefly: Cytotoxicity against Homo sapiens (human) NUGC cells after 24 hr by MTT assay. It counts as functional, cell-based. In general terms: Tetrazolium assays rely on reduction of a dye to a coloured formazan, in cell work by metabolically active cells.
The subject of experiment [2] is HEp-2. Briefly: Cytotoxicity against Homo sapiens (human) Hep2 cells after 24 hr by MTT assay. The experiment is classed as functional, cell-based. To be noted: HEp-2, 24 h.
The target of experiment [3] is T1, Nitric oxide synthase, inducible (Mus musculus) (UniProt P29477).
T1 sequence (whole entry): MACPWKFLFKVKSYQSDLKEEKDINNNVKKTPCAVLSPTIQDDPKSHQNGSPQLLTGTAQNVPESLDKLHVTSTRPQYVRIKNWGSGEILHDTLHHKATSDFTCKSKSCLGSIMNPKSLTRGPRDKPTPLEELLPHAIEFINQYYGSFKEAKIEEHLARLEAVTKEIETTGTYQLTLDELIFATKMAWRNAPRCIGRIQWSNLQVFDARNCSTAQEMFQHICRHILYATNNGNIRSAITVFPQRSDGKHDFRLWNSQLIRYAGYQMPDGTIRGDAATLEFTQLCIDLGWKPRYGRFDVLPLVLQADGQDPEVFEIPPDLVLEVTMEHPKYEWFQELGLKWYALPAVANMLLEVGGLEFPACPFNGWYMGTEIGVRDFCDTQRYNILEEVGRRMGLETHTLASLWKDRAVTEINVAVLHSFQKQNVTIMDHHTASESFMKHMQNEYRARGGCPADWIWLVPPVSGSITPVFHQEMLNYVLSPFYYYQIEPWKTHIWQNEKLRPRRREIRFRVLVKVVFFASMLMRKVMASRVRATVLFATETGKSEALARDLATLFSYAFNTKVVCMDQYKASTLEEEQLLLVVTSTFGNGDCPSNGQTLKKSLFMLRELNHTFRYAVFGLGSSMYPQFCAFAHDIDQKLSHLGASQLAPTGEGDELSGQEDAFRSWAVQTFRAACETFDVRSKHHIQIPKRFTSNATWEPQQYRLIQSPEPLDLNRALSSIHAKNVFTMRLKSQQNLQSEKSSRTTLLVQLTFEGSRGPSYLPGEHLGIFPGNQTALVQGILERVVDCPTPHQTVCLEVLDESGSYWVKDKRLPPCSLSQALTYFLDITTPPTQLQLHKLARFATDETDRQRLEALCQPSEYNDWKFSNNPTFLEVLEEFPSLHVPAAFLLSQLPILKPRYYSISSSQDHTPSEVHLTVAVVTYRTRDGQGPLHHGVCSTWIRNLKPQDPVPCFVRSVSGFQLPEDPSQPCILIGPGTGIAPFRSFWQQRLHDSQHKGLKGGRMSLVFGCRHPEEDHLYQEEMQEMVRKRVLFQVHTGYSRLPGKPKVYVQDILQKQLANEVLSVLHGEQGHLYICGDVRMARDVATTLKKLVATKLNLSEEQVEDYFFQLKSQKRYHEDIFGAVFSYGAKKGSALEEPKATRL
Put plainly: Inhibition of iNOS in Mus musculus (mouse) RAW 264.7 cells assessed as inhibition of LPS-induced nitrite production pretreated for 24 hr before stimulation with LPS measured after 18 hr by […]. The arrangement: concentration or dose not given beside the values. The settings on record: concentration not given here. On the technique in general: An ELISA detects its analyte on a solid surface through an enzyme-linked reagent.

Experiment [4] has as its system HL-60. Briefly: Cytotoxicity against Homo sapiens (human) HL60 cells after 24 hr by MTT assay. It counts as functional, cell-based. To be noted: HL-60, 24 h.
The nature of experiment [5]: Cytotoxicity against Homo sapiens (human) HONE1 cells after 24 hr by MTT assay. It counts as functional, cell-based. The settings on record: HONE1, 24 h.

Bounds are passed on as bounds.

For the compound `O=C1C2C3C=CC(CC3)C2C(=O)N1c1ccc(Br)cn1` (stereo unspecified), the figures for the IC50 in experiment [1], in experiment [2] and in experiment [4] were greater than 200 µM, 150 µM and greater than 200 µM, respectively. Moreover, in experiment [3], the inhibition stood at 56.6%.
Consider `O=C1c2ccccc2C(=O)N1c1ccccn1`, for which the 50% inhibitory concentration (IC50) in experiment [1] is greater than 200 µM; in experiment [2] it was 65.8 µM; in experiment [5], 156 µM; in experiment [4], greater than 200 µM. Moreover, the inhibition in experiment [3] was found to be 67.6%.
For `O=C1CCC(N2C(=O)c3ccccc3C2=O)C(=O)N1` (stereo unspecified), the inhibition in experiment [3] worked out at 28.2%.
Consider `O=C1C2C3C=CC(CC3)C2C(=O)N1c1ccc(Cl)cn1` (stereo unspecified), for which the IC50 in experiment [1], in experiment [2], in experiment [5] and in experiment [4] was greater than 200 µM throughout. The inhibition in experiment [3] came out at 44.9%.
Regarding `O=C1C2C3C=CC(CC3)C2C(=O)N1c1ccc(-c2ccccc2)cc1` (stereo unspecified), the results for the IC50 in experiment [1], in experiment [2] and in experiment [4] were greater than 200 µM, 46.3 µM and 104 µM, respectively. In addition, in experiment [3], the inhibition was determined as 86.6%.
Consider `Nc1ccccc1N1C(=O)C2C3C=CC(CC3)C2C1=O` (stereo unspecified), for which the IC50 in experiment [1] is greater than 200 µM; in experiment [2], 32.5 µM; in experiment [5], greater than 200 µM; in experiment [4], 67.6 µM. The inhibition in experiment [3] amounted to 76.9%.
For `Cc1cccc2c1C(=O)N(Cc1ccc(N)cc1)C2=O`, the concentration for half-maximal inhibition (IC50) in experiment [1], in experiment [5] and in experiment [4] was greater than 200 µM in each case. Besides, the inhibition in experiment [3] was 80.7%.
As to `O=C1c2ccccc2C(=O)N1c1cccc([N+](=O)[O-])c1`, the IC50 in experiment [1] was greater than 200 µM; in experiment [2] it was 179 µM; in experiment [4], 174 µM. Also, in experiment [3], the inhibition amounted to 90.6%.
As to `Nc1cccc(N2C(=O)C3C4C=CC(CC4)C3C2=O)c1` (stereo unspecified), the half-inhibitory concentration (IC50) in experiment [2] is 53.4 µM; in experiment [5], greater than 200 µM; in experiment [4] it was 64.1 µM. Besides, the inhibition in experiment [3] worked out at 68.4%.
`CC1=C(C)C(=O)N(Cc2ccccc2N)C1=O`: the IC50 in experiment [1] is greater than 200 µM; in experiment [5], greater than 200 µM; in experiment [4] it was 139 µM. Also, the inhibition in experiment [3] turned out to be 72.8%.
For `O=C1c2ccccc2C(=O)N1c1ccccc1N1C(=O)c2ccccc2C1=O`, the half-maximal inhibitory concentration (IC50) in experiment [1] was greater than 200 µM; in experiment [2], 56.8 µM; in experiment [5], greater than 200 µM; in experiment [4] it was greater than 200 µM. Besides, in experiment [3], the inhibition stood at 85.3%.
Turning to `Nc1cccc(N2C(=O)c3cccc4cccc(c34)C2=O)c1`, the IC50 in experiment [1] is greater than 200 µM; in experiment [2] it was 147 µM; in experiment [5], greater than 200 µM; in experiment [4], greater than 200 µM. Besides, in experiment [3], the inhibition was 81.4%.
Turning to `Cc1ccc2c(c1)C(=O)N(c1ccc([N+](=O)[O-])cn1)C2=O`, the concentration for half-maximal inhibition (IC50) in experiment [1] was greater than 200 µM; in experiment [2], 172 µM; in experiment [5], greater than 200 µM; in experiment [4], greater than 200 µM. For the same compound, the inhibition in experiment [3] is 74.8%.
`COc1ccc(N2C(=O)C3C4C=CC(CC4)C3C2=O)cc1` (stereo unspecified): the IC50 in experiment [1], in experiment [2] and in experiment [4] was greater than 200 µM throughout. Also, in experiment [3], the inhibition came out at 84.6%.
In the case of `COc1ccc(N2C(=O)c3ccccc3C2=O)cc1`, the IC50 in experiment [1], in experiment [2], in experiment [5] and in experiment [4] was greater than 200 µM each time. Besides, in experiment [3], the inhibition stood at 87.3%.
With `N#Cc1ccccc1N1C(=O)c2ccccc2C1=O`, the concentration for half-maximal inhibition (IC50) in experiment [1], in experiment [2], in experiment [5] and in experiment [4] was greater than 200 µM throughout. The inhibition in experiment [3] stood at 80.1%.
Turning to `Cc1ccc2c(c1)C(=O)N(Cc1ccccc1N)C2=O`, the IC50 in experiment [1], in experiment [5] and in experiment [4] was greater than 200 µM each time. Also, the inhibition in experiment [3] stood at 98.4%.
With `O=C1C2C3C=CC(CC3)C2C(=O)N1c1ccccc1` (stereo unspecified), the IC50 was 41.2 µM in experiment [2], greater than 200 µM in experiment [5] and 118 µM in experiment [4]. For the same compound, the inhibition in experiment [3] was 82%.
As for `Nc1ccc(N2C(=O)c3cccc4cccc(c34)C2=O)cc1`, the half-maximal inhibitory concentration (IC50) in experiment [1] was greater than 200 µM; in experiment [2] it was 43.9 µM; in experiment [5] it was greater than 200 µM; in experiment [4], greater than 200 µM. The inhibition in experiment [3] turned out to be 90.6%.
For `O=C1C2C3C=CC(CC3)C2C(=O)N1c1ccc(S)cc1` (stereo unspecified), the inhibition in experiment [3] is 87.9%.
Turning to `Cc1ccc2c(c1)C(=O)N(c1ccc(/N=N\c3ccccc3)cc1)C2=O`, the half-maximal inhibitory concentration (IC50) was greater than 200 µM in experiment [1], 104 µM in experiment [2], greater than 200 µM in experiment [5] and 59.5 µM in experiment [4]. Also, the inhibition in experiment [3] came out at 91.9%.
For the compound `Nc1cccc(CN2C(=O)c3ccccc3C2=O)c1`, the IC50 in experiment [1] is greater than 200 µM; in experiment [5], greater than 200 µM; in experiment [4], 78.1 µM. In addition, in experiment [3], the inhibition stood at 91.9%.
In the case of `O=C1C2C3C=CC(CC3)C2C(=O)N1c1ncc(Cl)cc1Cl` (stereo unspecified), the half-inhibitory concentration (IC50) in experiment [2] is greater than 200 µM; in experiment [5], greater than 200 µM; in experiment [4], 139 µM. Moreover, the inhibition in experiment [3] was 77.9%.
On to `Nc1ccc(N2C(=O)[C@@H]3C4C=CC(CC4)[C@@H]3C2=O)cc1`, for which the IC50 is greater than 200 µM in experiment [2] and 166 µM in experiment [4]. For the same compound, in experiment [3], the inhibition turned out to be 87.9%.
`O=C1c2ccccc2C(=O)N1c1ccc(Cl)cc1`: the results for the IC50 in experiment [1], in experiment [2] and in experiment [4] were greater than 200 µM, 178 µM and greater than 200 µM, respectively. Further, the inhibition in experiment [3] came out at 71.5%.
`Nc1ccccc1CN1C(=O)C2C3C=CC(CC3)C2C1=O` (stereo unspecified): the half-inhibitory concentration (IC50) in experiment [1], in experiment [5] and in experiment [4] was greater than 200 µM each time. Besides, in experiment [3], the inhibition turned out to be 75.5%.
For the compound `Nc1ccc(CN2C(=O)c3ccccc3C2=O)cc1`, the half-inhibitory concentration (IC50) in experiment [1], in experiment [5] and in experiment [4] was greater than 200 µM in each case. In addition, the inhibition in experiment [3] turned out to be 81.4%.
As for `O=C1c2cccc3cccc(c23)C(=O)N1c1ccccc1`, the 50% inhibitory concentration (IC50) in experiment [1] was greater than 200 µM; in experiment [2], 44.2 µM; in experiment [5], greater than 200 µM; in experiment [4], greater than 200 µM. In addition, the inhibition in experiment [3] amounted to 67.6%.
Take `O=C1c2ccccc2C(=O)N1c1ccc(-c2ccccc2)cc1`: the IC50 is greater than 200 µM in experiment [1], 40.4 µM in experiment [2], greater than 200 µM in experiment [5] and 119 µM in experiment [4]. In addition, the inhibition in experiment [3] was 84.6%.
In the case of `Cc1ccc2c(c1)C(=O)N(c1ccc(-c3ccccc3)cc1)C2=O`, the half-maximal inhibitory concentration (IC50) in experiment [2] is 104 µM; in experiment [5], greater than 200 µM; in experiment [4], 59.5 µM. Besides, in experiment [3], the inhibition was found to be 70.9%.
For `O=C1c2ccccc2C(=O)N1c1ccccc1` [N-PHENYL-PHTHALIMIDE], the IC50 in experiment [1], in experiment [2] and in experiment [4] was greater than 200 µM each time. The inhibition in experiment [3] came out at 89.2%.
In the case of `O=C1c2ccccc2C(=O)N1c1ccc(Cl)cn1`, the IC50 in experiment [1] is greater than 200 µM; in experiment [2], 56.7 µM; in experiment [5], greater than 200 µM; in experiment [4], 67.2 µM. For the same compound, the inhibition in experiment [3] was 94.5%.
As for `O=C1c2ccccc2C(=O)N1c1ccc(S)cc1`, the IC50 in experiment [1], in experiment [2], in experiment [5] and in experiment [4] was greater than 200 µM each time. Also, the inhibition in experiment [3] turned out to be 94.5%.
For the compound `N#Cc1ccc(N2C(=O)[C@@H]3C4C=CC(CC4)[C@@H]3C2=O)cc1`, the inhibition in experiment [3] was determined as 68.4%. In experiment [5], this compound gave a concentration for half-maximal inhibition (IC50) greater than 200 µM.
